As a reminder, the inhibition is the drop in the measured response relative to a control, in per cent. The Papp is a coefficient for how fast a substance crosses the barrier.

Converted amounts (≈) assume the structure as drawn. The source made the active and inactive calls. The calls are words filed in the database; no cut-off is given here.

Series [1] concerns HEK293. The experiment in a line: Cytotoxicity against HEK293 cells assessed as reduction in cell viability at 30 uM incubated for 1 hr by cell titer glo assay. The class given is toxicity, cell-based. The conditions noted are these: human, hek293, 1 h. On the technique in general: Cellular ATP, detected with luciferase, serves as a proxy for viable cell number.
A short description of series [2]: Thermodynamic solubility of the compound in PBS at pH 7.4. The class given is physicochemical. The conditions noted are these: read-out: Therm_solubility.
Series [3] in a line: Half life in human liver microsomes. The class given is ADME, Microsome. Background: Microsomes from liver hold many membrane-bound enzymes, among them those of drug oxidation.
Series [4] in a line: Metabolic stability in human liver microsomes assessed as compound remaining after 60 mins. The class given is ADME, Microsome. The conditions noted are these: 1 h.
The nature of series [5]: Metabolic stability in human liver microsomes assessed as compound remaining after 45 mins. The class given is ADME, Microsome. The conditions noted are these: 0.75 h.
Series [6] in a line: Metabolic stability in human liver microsomes assessed as compound remaining after 15 mins. The class given is ADME, Microsome. The conditions noted are these: 0.25 h.
Series [7] can be described thus: Intrinsic clearance in human liver microsomes. The class given is ADME, Microsome.
Series [8] has as its target Adenylate cyclase type 8 (Homo sapiens, UniProt P40145). The experiment in a line: Inhibition of Ca2+/ CAM stimulated human AC8 expressed in AC3 and AC6-knockout HEK293 cells assessed as A23187 stimulated cAMP accumulation at 10 uM incubated for 30 mins followed by […] in presence of IBMX for 1 hr by HTRF assay relative to control. It counts as cell-based. The conditions noted are these: time 90.0 min. A general note: Changes in cAMP serve as a functional read-out for many G protein-coupled receptors.

The subject of series [9] is Mus musculus. The experiment in a line: Antiallodynic activity against CFA-induced C57BL/6N mouse inflammatory pain model assessed as inhibition of inflammatory mechanical allodynia at 5.6 mg/kg, ip measured at 1 hr post treatment by von Frey test. It counts as functional, organism-based.
The target of series [10] is Voltage-gated inwardly rectifying potassium channel KCNH2 (Homo sapiens, UniProt Q12809). Briefly: Displacement of [3H]astemizole from human ERG expressed in HEK293 cell membrane at 10 uM by Radiometric displacement assay relative to control. The class given is toxicity, cell membranes. The conditions noted are these: hek293, 10 µM.
Series [11] deals with CYP2C9 (Homo sapiens, UniProt P11712). Briefly: Inhibition of CYP2C9 (unknown origin) at 10 uM relative to control. It counts as ADME.
Series [12] is described as follows: Apparent permeability in MDCK-II cells. The conditions noted are these: dog. The class given is ADME, cell-based, Canis lupus familiaris.
The target of series [13] is CYP2D6 (Homo sapiens, UniProt P10635). Briefly: Inhibition of CYP2D6 (unknown origin) at 10 uM relative to control. It counts as ADME.
Series [14] in a line: Metabolic stability in human liver microsomes assessed as compound remaining after 30 mins. The class given is ADME, Microsome. The conditions noted are these: 0.5 h.
For series [15], the target named is CYP2C19 (Homo sapiens, UniProt P33261). Briefly: Inhibition of CYP2C19 (unknown origin) at 10 uM relative to control. It counts as ADME.
For series [16], the target named is Insulin receptor (Homo sapiens) (UniProt P06213). The experiment in a line: Inhibition of human recombinant IRK assessed as inhibition of phosphorylation activity at 10 uM using 33P-labeleled peptide substrate by radiometric scintillation counting assay relative to control.
Series [17] deals with CYP3A4 (Homo sapiens, UniProt P08684). The experiment in a line: Inhibition of CYP3A4 (unknown origin) at 10 uM relative to control. The class given is ADME.
For series [18], the target named is T1, CYP1A2 (Homo sapiens, UniProt P05177).
T1 sequence (P05177 whole entry): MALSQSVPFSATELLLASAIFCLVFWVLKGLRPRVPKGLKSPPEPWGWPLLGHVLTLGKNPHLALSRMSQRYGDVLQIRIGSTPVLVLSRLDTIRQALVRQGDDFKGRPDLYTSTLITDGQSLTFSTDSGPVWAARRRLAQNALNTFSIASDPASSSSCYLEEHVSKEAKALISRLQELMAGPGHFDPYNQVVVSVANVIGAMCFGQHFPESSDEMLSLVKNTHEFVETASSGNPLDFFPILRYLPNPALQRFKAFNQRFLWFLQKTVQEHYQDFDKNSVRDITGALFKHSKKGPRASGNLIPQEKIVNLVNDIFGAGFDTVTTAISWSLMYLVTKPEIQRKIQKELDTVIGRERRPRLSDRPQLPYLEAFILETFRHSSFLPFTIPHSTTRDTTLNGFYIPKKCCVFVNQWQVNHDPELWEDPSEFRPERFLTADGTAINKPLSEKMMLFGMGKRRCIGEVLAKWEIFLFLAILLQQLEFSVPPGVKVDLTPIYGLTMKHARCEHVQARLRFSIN
Briefly: Inhibition of CYP1A2 (unknown origin) at 10 uM relative to control. It counts as ADME.

CYP3A4, sequence (P08684 whole entry): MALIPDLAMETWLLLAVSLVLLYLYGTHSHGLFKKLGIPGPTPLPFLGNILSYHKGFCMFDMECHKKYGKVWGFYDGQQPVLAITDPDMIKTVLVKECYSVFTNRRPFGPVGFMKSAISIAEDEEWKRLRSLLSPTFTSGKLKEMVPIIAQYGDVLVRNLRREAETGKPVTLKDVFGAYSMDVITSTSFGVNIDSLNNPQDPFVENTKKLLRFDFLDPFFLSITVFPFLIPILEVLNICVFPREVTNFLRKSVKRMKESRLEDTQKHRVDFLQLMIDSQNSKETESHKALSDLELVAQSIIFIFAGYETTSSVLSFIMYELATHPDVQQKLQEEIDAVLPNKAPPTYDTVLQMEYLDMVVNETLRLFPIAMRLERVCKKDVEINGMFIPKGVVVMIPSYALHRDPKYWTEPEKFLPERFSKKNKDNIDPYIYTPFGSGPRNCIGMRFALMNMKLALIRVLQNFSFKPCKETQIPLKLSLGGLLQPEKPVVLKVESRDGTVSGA
Voltage-gated inwardly rectifying potassium channel KCNH2, sequence (Q12809 whole entry): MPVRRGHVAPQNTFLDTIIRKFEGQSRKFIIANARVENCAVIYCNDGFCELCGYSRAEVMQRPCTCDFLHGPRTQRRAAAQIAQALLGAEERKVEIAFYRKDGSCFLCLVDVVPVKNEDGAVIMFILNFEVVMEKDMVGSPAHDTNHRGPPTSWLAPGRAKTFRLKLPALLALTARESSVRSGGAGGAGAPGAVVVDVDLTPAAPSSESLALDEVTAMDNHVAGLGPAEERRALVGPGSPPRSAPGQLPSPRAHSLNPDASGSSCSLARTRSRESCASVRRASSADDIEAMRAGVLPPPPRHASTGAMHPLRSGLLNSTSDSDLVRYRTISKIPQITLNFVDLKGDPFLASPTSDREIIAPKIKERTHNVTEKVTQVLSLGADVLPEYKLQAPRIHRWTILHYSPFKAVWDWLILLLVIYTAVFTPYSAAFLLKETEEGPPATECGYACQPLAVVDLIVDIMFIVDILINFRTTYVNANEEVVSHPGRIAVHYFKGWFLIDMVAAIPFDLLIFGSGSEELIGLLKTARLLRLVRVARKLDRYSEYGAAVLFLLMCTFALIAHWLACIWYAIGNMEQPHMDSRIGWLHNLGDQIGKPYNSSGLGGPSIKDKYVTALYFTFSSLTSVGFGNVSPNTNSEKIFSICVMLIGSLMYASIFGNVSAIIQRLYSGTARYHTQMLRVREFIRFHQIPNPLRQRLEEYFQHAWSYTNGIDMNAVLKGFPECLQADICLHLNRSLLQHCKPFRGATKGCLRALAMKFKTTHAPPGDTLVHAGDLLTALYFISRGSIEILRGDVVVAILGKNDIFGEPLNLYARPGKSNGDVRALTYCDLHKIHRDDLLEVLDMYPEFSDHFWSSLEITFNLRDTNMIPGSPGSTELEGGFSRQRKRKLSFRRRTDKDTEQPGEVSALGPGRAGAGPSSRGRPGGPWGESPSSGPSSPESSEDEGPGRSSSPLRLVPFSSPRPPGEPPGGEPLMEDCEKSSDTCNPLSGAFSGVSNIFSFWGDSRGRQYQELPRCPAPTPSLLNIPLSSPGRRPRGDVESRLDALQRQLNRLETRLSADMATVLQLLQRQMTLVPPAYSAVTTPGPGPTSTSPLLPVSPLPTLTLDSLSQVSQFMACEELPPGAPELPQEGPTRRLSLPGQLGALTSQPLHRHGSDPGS
Insulin receptor (Homo sapiens), sequence (P06213 28-758 limits assumed): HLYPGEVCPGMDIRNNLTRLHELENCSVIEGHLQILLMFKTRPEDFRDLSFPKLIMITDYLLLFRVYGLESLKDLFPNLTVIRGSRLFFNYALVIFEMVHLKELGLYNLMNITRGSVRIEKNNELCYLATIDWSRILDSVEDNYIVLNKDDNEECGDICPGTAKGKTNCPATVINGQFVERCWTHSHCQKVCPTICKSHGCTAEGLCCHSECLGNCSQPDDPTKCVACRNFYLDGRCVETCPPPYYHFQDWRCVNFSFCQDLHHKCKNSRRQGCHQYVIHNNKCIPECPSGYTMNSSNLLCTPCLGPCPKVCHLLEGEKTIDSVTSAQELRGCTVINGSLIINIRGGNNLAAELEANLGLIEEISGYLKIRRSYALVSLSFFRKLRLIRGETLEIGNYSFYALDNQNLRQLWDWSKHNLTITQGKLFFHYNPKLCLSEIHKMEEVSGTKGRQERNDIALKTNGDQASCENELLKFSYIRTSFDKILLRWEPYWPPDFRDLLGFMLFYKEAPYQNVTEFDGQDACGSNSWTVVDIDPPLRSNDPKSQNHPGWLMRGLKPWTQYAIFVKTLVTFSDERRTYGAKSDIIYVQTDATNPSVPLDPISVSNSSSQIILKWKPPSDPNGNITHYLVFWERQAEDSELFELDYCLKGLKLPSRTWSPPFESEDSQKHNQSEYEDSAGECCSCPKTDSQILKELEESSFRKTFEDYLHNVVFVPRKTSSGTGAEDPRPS
Insulin receptor (Homo sapiens), sequence (P06213 763-1382 limits assumed): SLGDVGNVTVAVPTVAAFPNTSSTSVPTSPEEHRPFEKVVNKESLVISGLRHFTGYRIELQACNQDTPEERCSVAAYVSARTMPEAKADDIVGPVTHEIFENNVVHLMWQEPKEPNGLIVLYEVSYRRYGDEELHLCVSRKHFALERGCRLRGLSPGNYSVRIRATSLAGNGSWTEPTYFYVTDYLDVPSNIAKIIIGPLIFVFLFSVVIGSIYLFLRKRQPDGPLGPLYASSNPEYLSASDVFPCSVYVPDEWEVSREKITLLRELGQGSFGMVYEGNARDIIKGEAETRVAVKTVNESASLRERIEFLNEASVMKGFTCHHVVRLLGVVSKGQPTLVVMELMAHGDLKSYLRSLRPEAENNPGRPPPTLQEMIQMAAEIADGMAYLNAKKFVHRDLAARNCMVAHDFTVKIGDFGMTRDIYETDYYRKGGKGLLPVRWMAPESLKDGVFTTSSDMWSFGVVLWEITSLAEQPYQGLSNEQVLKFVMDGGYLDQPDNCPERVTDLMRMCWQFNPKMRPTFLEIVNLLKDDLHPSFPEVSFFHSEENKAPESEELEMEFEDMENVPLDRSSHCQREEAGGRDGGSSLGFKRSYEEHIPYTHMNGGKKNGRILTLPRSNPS
CYP2C19, sequence (P33261 whole entry): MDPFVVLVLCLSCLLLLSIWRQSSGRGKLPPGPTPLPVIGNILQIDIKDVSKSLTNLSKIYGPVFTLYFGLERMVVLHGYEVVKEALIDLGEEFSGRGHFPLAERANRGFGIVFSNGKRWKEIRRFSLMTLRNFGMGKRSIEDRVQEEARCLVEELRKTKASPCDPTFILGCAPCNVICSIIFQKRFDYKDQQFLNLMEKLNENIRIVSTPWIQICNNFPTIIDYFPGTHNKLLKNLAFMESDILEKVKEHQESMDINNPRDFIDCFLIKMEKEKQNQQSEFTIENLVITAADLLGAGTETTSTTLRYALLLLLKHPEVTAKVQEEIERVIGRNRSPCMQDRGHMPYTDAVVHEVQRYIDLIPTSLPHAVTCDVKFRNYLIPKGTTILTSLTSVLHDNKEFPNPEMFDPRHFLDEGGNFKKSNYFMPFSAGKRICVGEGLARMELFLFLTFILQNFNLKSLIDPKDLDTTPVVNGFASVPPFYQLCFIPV
Adenylate cyclase type 8, sequence (P40145 whole entry): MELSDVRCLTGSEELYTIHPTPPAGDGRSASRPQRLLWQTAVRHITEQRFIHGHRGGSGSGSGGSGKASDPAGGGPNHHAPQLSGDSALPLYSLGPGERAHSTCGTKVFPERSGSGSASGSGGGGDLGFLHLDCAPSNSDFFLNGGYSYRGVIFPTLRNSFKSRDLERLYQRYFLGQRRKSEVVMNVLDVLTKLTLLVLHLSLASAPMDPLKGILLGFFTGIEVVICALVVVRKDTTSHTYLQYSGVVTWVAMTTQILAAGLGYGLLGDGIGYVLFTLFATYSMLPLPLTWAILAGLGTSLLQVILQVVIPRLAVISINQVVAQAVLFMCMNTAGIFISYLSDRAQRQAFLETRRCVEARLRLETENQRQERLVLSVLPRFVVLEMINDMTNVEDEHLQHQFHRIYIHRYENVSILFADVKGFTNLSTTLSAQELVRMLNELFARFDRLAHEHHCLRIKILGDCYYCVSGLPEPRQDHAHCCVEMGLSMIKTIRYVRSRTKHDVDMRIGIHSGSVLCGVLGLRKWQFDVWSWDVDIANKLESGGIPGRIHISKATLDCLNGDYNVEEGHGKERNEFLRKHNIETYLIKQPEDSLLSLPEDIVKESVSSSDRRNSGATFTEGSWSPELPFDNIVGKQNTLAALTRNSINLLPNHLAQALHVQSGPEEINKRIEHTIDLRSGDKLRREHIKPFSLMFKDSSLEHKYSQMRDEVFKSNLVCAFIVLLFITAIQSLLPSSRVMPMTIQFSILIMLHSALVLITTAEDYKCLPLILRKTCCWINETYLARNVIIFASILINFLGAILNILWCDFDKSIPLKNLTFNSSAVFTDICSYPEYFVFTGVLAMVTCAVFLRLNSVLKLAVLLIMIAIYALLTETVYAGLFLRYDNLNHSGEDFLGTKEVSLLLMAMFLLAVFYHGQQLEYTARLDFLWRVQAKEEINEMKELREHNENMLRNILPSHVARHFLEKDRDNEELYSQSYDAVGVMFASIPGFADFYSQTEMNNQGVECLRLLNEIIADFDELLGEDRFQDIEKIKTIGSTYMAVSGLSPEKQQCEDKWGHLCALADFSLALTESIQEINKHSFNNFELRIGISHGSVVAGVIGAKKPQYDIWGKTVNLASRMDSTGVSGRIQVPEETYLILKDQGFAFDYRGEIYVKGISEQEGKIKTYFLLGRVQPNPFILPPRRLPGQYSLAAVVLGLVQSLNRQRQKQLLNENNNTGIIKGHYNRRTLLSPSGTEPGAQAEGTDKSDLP

For `CCc1cc(=O)[nH]c(-n2nc(C)cc2NC(=O)c2cc(C)ccc2F)n1`, in [1], the Activity result is given as “Non-Toxic”. Besides, the solubility thermodynamic in [2] stood at 33.6 µM (≈ 11.9 µg/mL). In addition, in series [3], the t1/2 is 51.2 min. Further, the Stability in series [4] was 44.5%; in series [5], 57.5%; in [6], 88.3%; in [14], 67.4%. In series [7], this molecule had a CLH of 136.7 µL/min/mg. Besides, the inhibition result in series [8] was “Active”. The result in [9] was Active. The “inhibition (INH)” value in [10] stood at 6%. Moreover, the inhibition at 10 µM was -0.2% in series [11]; 0.3% in series [13]; 1.8% in [15]; -0.9% in [17]; 8.7% in series [18]. The Papp in series [12] turned out to be 2.21 ×10⁻⁶ cm/s. Besides, in series [16], the inhibition came out at 64%.

The record behind these values is ChEMBL document CHEMBL5154791, “Optimization of a Pyrimidinone Series for Selective Inhibition of Ca2+/Calmodulin-Stimulated Adenylyl Cyclase 1 Activity for the Treatment of Chronic Pain” (J Med Chem, 2022).
